Data reported in patent US6749336B2, “Ionic liquid temperature sensor” (priority 2002, dated 2004).

Test system: not listed separately
Test: decomposition temperature of ionic liquids
Type: physicochemical
Conditions: 1-alkyl-pyridinium ionic liquids, Table 3, citation not given

Structure (SMILES)	Decomposition Temperature
CCCC[n+]1cccc(C)c1.F[P-](F)(F)(F)(F)F [[1-butyl-3-methylpyridinium] [PF6]]	347 °C
CCCC[n+]1ccc(C)cc1.[Cl-] [[1-butyl-4-methylpyridinium] Cl]	214 °C
CCCC[n+]1ccc(C)cc1.F[B-](F)(F)F [[1-butyl-4-methylpyridinium] [BF4]]	332 °C
CCCC[n+]1ccc(C)cc1.F[P-](F)(F)(F)(F)F [[1-butyl-4-methylpyridinium] [PF6]]	358 °C
CCCCCC[n+]1ccc(C)cc1.[Cl-] [[1-hexyl-4-methylpyridinium] Cl]	218 °C
CCCCc1ccc[nH+]c1.F[P-](F)(F)(F)(F)F [[3-n-butyl-pyridinium] [PF6]]	125-444 °C
F[P-](F)(F)(F)(F)F.c1ccc(CCCc2cc[nH+]cc2)cc1 [[4-phenylpropyl-pyridinium] [PF6]]	163-474 °C

Test system: rats
Test: not given
Conditions: acute toxicity; cited from earlier work

Structure (SMILES)	LD50 [mg/kg]
CCCCCCOCn1cc[n+](C)c1.F[B-](F)(F)F [1-hexyloxymethyl-3-methylimidazolium tetrafluoroborate]	1400

Test system: not given
Test: not given
Conditions: 1-alkyl-3-methylimidazolium ionic liquids, Table 2, literature citations a-g; cited from earlier work

Structure (SMILES)	Decomposition Temperature [°C]
CCC[n+]1ccn(C)c1.[Cl-] [[C3mim] Cl]	282
CCCn1cc[n+](C)c1.F[P-](F)(F)(F)(F)F [[C3mim] [PF6]]	335
CCCCn1cc[n+](C)c1.[Cl-] [[C4mim] Cl]	254
CCCCn1cc[n+](C)c1.[I-] [[C4mim] I]	265
CCCCn1cc[n+](C)c1.F[P-](F)(F)(F)(F)F [[C4mim] [PF6]]	349
CCCCCCn1cc[n+](C)c1.[Cl-] [[C6mim] Cl]	253
CCCCCCn1cc[n+](C)c1.F[P-](F)(F)(F)(F)F [[C6mim] [PF6]]	417
CCCCCCCCn1cc[n+](C)c1.[Cl-] [[C8mim] Cl]	243
